Experimental data taken from patent US20250332101A1, “Composition” (priority 2018, published 2025).
Entries after “also recorded” stand apart in the source; their conditions may differ.

Experiments:
[1] = compared with 3-oxo-C12 HSL; cited from earlier work
HCE-S tight junctions = test: HCE-S transwell barrier: transepithelial resistance (TER); format: cell-based, human; conditions: 2 h exposure, up to 300 μM 3-OH-C12 HSL
Description: (§1) HCE-S cells (Immortalized Human Corneal Epithelial Cells) were cultured as a monolayer in 90% DMEM supplemented with 10% heat inactivated FBS and penicillin-streptomycin (100 U/mL). Cells were cultured at 37° C. in a humidified incubator with 5% CO2 and growth medium was replaced every three days. HCE-S populations were grown to 80% confluence before passage to 20% using 0.25% Trypsin-EDTA. Prior to each experiment cell populations were estimated using a haemocytometer and trypan blue exclusion assay.
HCE-S barrier models for transcytosis assays were prepared using an adaptation of a previously described method (Reichl (2008)). HCE-S cells (5×10^4 cells/well) were seeded on transwell inserts (polycarbonate, 3 μm pore size, 1.13 cm^2) and maintained for 7 days refreshing the medium in the apical and basal chambers every second day. […] Prior to each experiment culture medium was replaced with phenol red free DMEM and barrier integrity measured via transepithelial resistance (TER). […]
FIGS. 21A-21D and FIGS. 22Ai-22Biii. Baseline TER was recorded before addition of […] 3-OH-C12 HSL in micelles (assuming 100% drug loading) or equivalent concentrations of micelles only (vehicle control) dissolved in phenol-red free culture medium for 2 h. After this time, TER was recorded before culture medium was replaced with fresh. […]

[2] = tested on: immortalized human corneal epithelial cell line (HCE-S); test: Cell toxicity test in corneal epithelial cells; format: cell-based; conditions: compared with 3-oxo-C12 HSL and Benzalkonium chloride (BAK)
Description: as §1

[3] = tested on: HCE-S transwell barrier model; test: HCE-S transwell barrier: transcytosis of model drugs; format: cell-based, human; conditions: pre-treatment of HCE-S for 2 h with 300 μM
Description: HCE-S barrier models for transcytosis assays were prepared using an adaptation of a previously described method (Reichl (2008)). HCE-S cells (5×10^4 cells/well) were seeded on transwell inserts (polycarbonate, 3 μm pore size, 1.13 cm^2) and maintained for 7 days refreshing the medium in the apical and basal chambers every second day. After this time cells were cultured for a further 10 days at an apical air interface to encourage development of a multilayer barrier. Prior to each experiment culture medium was replaced with phenol red free DMEM and barrier integrity measured via transepithelial resistance (TER). […]
FIGS. 21A-21D and FIGS. 22Ai-22Biii. Baseline TER was recorded before addition of […] 3-OH-C12 HSL in micelles (assuming 100% drug loading) or equivalent concentrations of micelles only (vehicle control) dissolved in phenol-red free culture medium for 2 h. After this time, TER was recorded before culture medium was replaced with fresh. To the apical chamber, a model drug molecule (FITC-dextran or Avastin) was added and the concentration of this agent in the basolateral chamber was measured either by monitoring FITC fluorescence (FITC-dextran) versus a standard curve of known concentrations or using a commercially available Avastin sandwich ELISA kit as previously described (Davis et al. (2014)). […]

Aqueous solubility = format: physicochemical
[4] = tested on: RGC in OHT Dark Agouti (DA) rats; format: in vivo; conditions: topical eye drops from two days prior to induction, three weeks, versus OHT only
[5] = topical formulation, Sigurdsson et al; cited from earlier work
[6] = tested on: New Zealand albino male rabbits (eye); conditions: known; rabbits and humans; cited from earlier work

## CCCCCCCCCC(O)CC(=O)NC1CCOC1=O (centres unmarked) [3-OH-C12 HSL, 3-hydroxydodecanoyl homoserine lactone]
[1]
  resistance to hydrolysis: higher resistance to hydrolysis
HCE-S tight junctions
  disruption of tight junctions (TER, percentage of control): reversible disruption of Tight junctions
[2]
  cell toxicity (tolerability): better tolerated
[3]
  transcytosis of 40 kDa FITC Dextran: significantly enhanced
  transcytosis of 149 kDa Avastin: significantly enhanced
Aqueous solubility
  water solubility: low water solubility

## COc1cc(/C=C/C(=O)CC(=O)/C=C/c2ccc(O)c(OC)c2)ccc1O [FC]
[4]
  RGC density / RGC loss (neuroprotective effect): did not have this effect; also recorded: no significant protective effect; also recorded: not FC treatment, significantly reduced RGC loss

## COc1cc(C=CC(=O)CC(=O)C=Cc2ccc(O)c(OC)c2)ccc1O [curcumin, 1,7-bis-(4-hydroxy-3-methoxyphenyl)-1,6-heptadiene-3,5-dione]
Aqueous solubility; 2 mg/mL curcumin
  solubility in distilled water: very poorly soluble

## C[C@@H]1C[C@H]2[C@@H]3CCC4=CC(=O)C=C[C@]4(C)[C@@]3(F)[C@@H](O)C[C@]2(C)[C@@]1(O)C(=O)CO [dexamethasone]
[5]
  entry into the retina by systemic absorption route: 40%
  entry into the retina via topical penetration: 60%

## Benzalkonium chloride [BAK]
[6]
  ocular irritation: potent ocular irritation
